Results as given in patent US7384927B2, “Alkylated porphyrins as pesticides acting both in the presence and absence of light” (priority 2003, dated 2008).

Test system: Ceratitis capitata flies
Assay: Photoinsecticidal action: fly survival after bait and visible light irradiation (artificial lamp)
Type: in vivo
Details: for Survival (% of control untreated flies): survival 10 h after irradiation; for photoinsecticidal action compared among alkylated porphyrins: irradiation with visible light or sunlight
Method: Porphyrins: • a) meso[tri(N-methyl-pyridyl), mono(N-dodecyl-pyridyl)]porphine (abbr.: C12) • b) meso[tri(N-methyl-pyridyl), mono(N-tetradecyl-pyridyl)]porphine (abbr.: C14) • c) meso[tri(N-methyl-pyridyl), mono(N-octadecyl-pyridyl)]porphine (abbr.: C18) Bait: Aqueous solution containing 10% sucrose and 1% autolysed yeast Flies: • a) Ceratitis capitata (fruit fly) age: 1 week; weight: 5-6 mg • b) Bactrocera oleae (olive fly) age: 10 days; weight: 4-4.5 mg • c) Stomoxis calcitrans (stable fly) age: 10 days; weight: 12 mg Irradiation: • a) High pressure halogen lamp, equipped with infrared and UV filters, emission 360-850 nm, operated at intensities in the 760-2,000 μE s^−1m^−2 range • b) Sunlight, mid June at Padua latitude, average intensity of […] μE s^−1m^−2 with minimum and maximum values of 950 and, respectively, 1,380 μE s^−1m^−2
The irradiations were performed for 1 h, then the flies were kept in dim light for monitoring the survival. Control flies were irradiated under identical conditions after feeding with a porphyrin-free bait.
The irradiations were performed for 1 h at a fluence-rate of 1220 μE s^−1m^−2. The survival was evaluated 10 h after the end of irradiation. […] The porphyrins are abbreviated as following: HP: haematoporphyrin; C1: meso-tetra(N-methyl-pyridyl)porphine.
The survival was evaluated 10 h after the end of irradiation.
An appropriate number of flies (50 flies per each experiment) was caged in 115×55×70 mm Plexiglas cages with several holes (ø=0.5 mm) and starved for 36 h. Then, depending on the protocol to be adopted for each specific experiment, the flies were fed with the bait (10% sucrose and 1% autolysed yeast in neutral aqueous solution), which was either porphyrin-free or added with a predetermined concentration of the porphyrin. These flies were then used in the various experimental sessions. […]

[1] = 3 μM in bait 24 h, time interval feeding-irradiation 0 h, irradiation 1 h at 1220 μE s^−1m^−2
[2] = 3 μM in bait 24 h, time interval feeding-irradiation 12 h, irradiation 1 h at 1220 μE s^−1m^−2
[3] = 3 μM in bait 24 h, time interval feeding-irradiation 24 h, irradiation 1 h at 1220 μE s^−1m^−2
[4] = 3 μM in bait 24 h, time interval feeding-irradiation 48 h, irradiation 1 h at 1220 μE s^−1m^−2
[5] = 3 μM in bait, fluence-rate 760 μE s^−1m^−2, irradiated 24 h after feeding (title)
[6] = 3 μM in bait, fluence-rate 1220 μE s^−1m^−2, irradiated 24 h after feeding (title)
[7] = 3 μM in bait, fluence-rate 1500 μE s^−1m^−2, irradiated 24 h after feeding (title)
[8] = 3 μM in bait, fluence-rate 2000 μE s^−1m^−2, irradiated 24 h after feeding (title)

Row | SMILES | Survival (% of control untreated flies) [1] | Survival (% of control untreated flies) [2] | Survival (% of control untreated flies) [3] | Survival (% of control untreated flies) [4] | Survival (% of control untreated flies) [5] | Survival (% of control untreated flies) [6] | Survival (% of control untreated flies) [7] | Survival (% of control untreated flies) [8] | time by which essentially all flies died (after 1 h illumination with artificial light or sunlight) | photoinsecticidal action compared among alkylated porphyrins
1 | CCCCCCCCCCCC[n+]1ccc(-c2c3nc(c(-c4cc[n+](C)cc4)c4ccc([nH]4)c(-c4cc[n+](C)cc4)c4nc(c(-c5cc[n+](C)cc5)c5ccc2[nH]5)C=C4)C=C3)cc1 [C12, meso[tri(N-methyl-pyridyl), mono(N-dodecyl-pyridyl)]porphine] | 4 % of control untreated flies | 8 % of control untreated flies | 23 % of control untreated flies | 37 % of control untreated flies | 13 % of control untreated flies | 4 % of control untreated flies | 2 % of control untreated flies | 0 % of control untreated flies |  | 
2 | CCCCCCCCCCCCCC[n+]1ccc(-c2c3nc(c(-c4cc[n+](C)cc4)c4ccc([nH]4)c(-c4cc[n+](C)cc4)c4nc(c(-c5cc[n+](C)cc5)c5ccc2[nH]5)C=C4)C=C3)cc1 [C14, meso[tri(N-methyl-pyridyl), mono(N-tetradecyl-pyridyl)]porphine] | 0 % of control untreated flies | 0 % of control untreated flies | 10 % of control untreated flies | 21 % of control untreated flies | 10 % of control untreated flies | 0 % of control untreated flies | 0 % of control untreated flies | 0 % of control untreated flies | ≤ 45 min | most efficient insecticidal action
3 | CCCCCCCCCCCCCCCCCC[n+]1ccc(-c2c3nc(c(-c4cc[n+](C)cc4)c4ccc([nH]4)c(-c4cc[n+](C)cc4)c4nc(c(-c5cc[n+](C)cc5)c5ccc2[nH]5)C=C4)C=C3)cc1 [C18, meso[tri(N-methyl-pyridyl), mono(N-octadecyl-pyridyl)]porphine] | 45 % of control untreated flies | 52 % of control untreated flies | 64 % of control untreated flies | 70 % of control untreated flies | 52 % of control untreated flies | 45 % of control untreated flies | 40 % of control untreated flies | 31 % of control untreated flies |  | drop in the overall photoactivity
